# From publication PMC6934184, “Selective DNA-PKcs inhibition extends the therapeutic index of localized radiotherapy and chemotherapy” (The Journal of Clinical Investigation, 2019)
# Target: T1, FLT4 (VEGFR3) (Homo sapiens, UniProt P35916)
# T1 construct: purchased Thermo Fisher Scientific (Life Technologies) SelectScreen
# Test: SelectScreen Z'LYTE
# Format: biochemical
# How it was run: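 NU5455 was profiled across the SelectScreen Broad panel of kinase activity and binding assays. Z'LYTE reactions such as CSF1R ran at apparent Km ATP, while the Adapta CAMK1 assay used ATP listed as 10. Values are given as percent.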
# T1 sequence (P35916 25-1363): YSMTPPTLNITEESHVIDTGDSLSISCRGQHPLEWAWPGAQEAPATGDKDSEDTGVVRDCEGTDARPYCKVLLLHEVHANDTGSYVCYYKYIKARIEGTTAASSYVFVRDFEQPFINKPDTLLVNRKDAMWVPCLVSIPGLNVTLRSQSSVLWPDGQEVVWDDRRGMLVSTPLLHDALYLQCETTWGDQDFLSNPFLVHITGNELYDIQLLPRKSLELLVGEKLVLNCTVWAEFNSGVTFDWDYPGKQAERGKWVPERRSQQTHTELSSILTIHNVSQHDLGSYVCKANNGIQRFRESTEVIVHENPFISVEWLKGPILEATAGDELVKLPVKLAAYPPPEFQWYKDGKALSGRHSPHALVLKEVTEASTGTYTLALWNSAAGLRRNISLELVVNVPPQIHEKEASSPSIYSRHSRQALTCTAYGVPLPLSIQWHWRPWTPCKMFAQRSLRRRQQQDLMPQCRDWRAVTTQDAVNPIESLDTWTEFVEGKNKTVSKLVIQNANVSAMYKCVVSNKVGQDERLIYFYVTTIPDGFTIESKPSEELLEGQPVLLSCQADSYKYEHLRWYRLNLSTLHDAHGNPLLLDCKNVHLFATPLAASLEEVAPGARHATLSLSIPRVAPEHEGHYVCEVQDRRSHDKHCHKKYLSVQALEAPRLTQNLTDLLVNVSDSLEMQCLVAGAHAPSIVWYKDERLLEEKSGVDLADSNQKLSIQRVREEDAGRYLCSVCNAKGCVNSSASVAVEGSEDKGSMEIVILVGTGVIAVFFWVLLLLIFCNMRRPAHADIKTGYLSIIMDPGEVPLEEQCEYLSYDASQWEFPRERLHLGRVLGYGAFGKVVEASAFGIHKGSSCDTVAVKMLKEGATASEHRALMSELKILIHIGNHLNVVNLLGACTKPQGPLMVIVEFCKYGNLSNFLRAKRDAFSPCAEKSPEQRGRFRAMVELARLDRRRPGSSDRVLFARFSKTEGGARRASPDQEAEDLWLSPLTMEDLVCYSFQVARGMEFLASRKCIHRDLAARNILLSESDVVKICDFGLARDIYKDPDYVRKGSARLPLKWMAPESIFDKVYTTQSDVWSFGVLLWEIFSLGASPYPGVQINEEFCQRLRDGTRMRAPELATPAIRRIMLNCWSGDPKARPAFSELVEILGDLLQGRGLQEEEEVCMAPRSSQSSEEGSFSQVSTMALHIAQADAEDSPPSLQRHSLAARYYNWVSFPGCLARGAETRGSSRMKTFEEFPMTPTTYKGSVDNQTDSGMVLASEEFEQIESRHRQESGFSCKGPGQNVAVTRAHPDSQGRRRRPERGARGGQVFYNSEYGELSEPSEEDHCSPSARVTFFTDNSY
compound,measurement,value
CN(C(=O)CN1CCOCC1)c1ccc2sc3c(-c4cccc5c(=O)cc(N6CC7CCC(C6)O7)oc45)cccc3c2c1 [NU5455],inhibition at 1 µM,3.5%
